Results taken from patent US5977156A (priority 1996, dated 1999).
Values after ≈ are worked out from the molar mass of the structure shown. Read-outs that look alike come from different tables or passages of the source.

Tests used:
Microdochium nivale = assay: Wheat seed treatment against snow mould; type: in vivo; details: wheat (Ixos), naturally infected, control 96
Method: This example illustrates application against snow mould (Microdochium nivale).
Wheat seeds (variety Ixos), naturally infected with Microdochium nivale, were treated in the proportion of 5, 10, 25, 50 and 100 g of active material per 100 kg of seeds.
(§1) These seeds are sown in 7×7 cm pots filled with a peat/pozzolana mixture in the proportion of 25 seeds per pot.
These pots are maintained at 5° C. and in darkness for 3 weeks and are then placed at 10° C. under artificial light for 1 week. They are finally placed under glass, on sand kept moist by regular sprinkling, at 20° C. and 60% relative humidity for 1 week.
The seedlings carrying the disease (unemerged seedlings and deformed seedlings) are then counted and the results shown in the table below (expressed as percentage) are obtained. The control seedlings correspond to pots in which wheat seeds, naturally infected with the disease, have been sown, which seeds have not been treated.

Fusarium moniliforme = assay: Maize seed treatment against root rot; type: in vivo; details: maize (Pinnacle), control 92
Method: This example illustrates application against root rot (Fusarium moniliforme).
Maize seeds (variety Pinnacle) were treated in the proportion of 125 and 250 g of active material per 100 kg of seeds.
These seeds are sown in 7×7 cm pots filled with vermiculite in the proportion of 5 seeds per pot. Infection is carried out by introducing, into the vicinity of the seeds, in the upper part of the substrate, 10 ml of an aqueous suspension containing 400000 spores of Fusarium moniliforme per ml.
These pots are then maintained at 80% humidity for 3 weeks at 8° C. and then for 2 weeks at 16° C.
The seedlings carrying the disease (unemerged seedlings and seedlings with slowed and deformed growth) are then counted and the results shown in the table below (expressed as percentage) were obtained. The control seedlings correspond to pots in which untreated maize seeds have been sown, which seeds have been infected with the disease.

[1] = system: Pyricularia oryzae (neck blast); type: in vivo; details: vs insecticide-treated control plots, after 2 months
[2] = system: Sheath rot (Acrocylindrium oryzae and/or Gaeumannomyces graminis and/or Helminthosporium oryzae); assay: Rice seed treatment field trial, attack type 6 (sheath rot); type: in vivo; details: vs insecticide-treated control plots, after 2 months
Serpula lacrymans = assay: Inhibition of growth of wood-degrading fungus on agar; type: cell-based; details: agar culture medium, 20° C., read-out: IC50 (50% inhibition of the growth of the fungus)
Method: (§2) This example illustrates application against fungi which degrade wood.
(§3) Agar culture medium containing different doses of the active material to be tested is introduced into petri dishes.
(§4) Petri dishes with the same culture medium without the active material are prepared in order to act as control.
(§5) One day after the preparation of these petri dishes, agar implants supporting a fungal culture are deposited at the center of each petri dish. The fungi tested are: Serpula lacrymans, Coniophora puteana (dry and wet rots) and Gleophyllum trabeum.
(§6) The petri dishes are then placed at 20° C. until the results are recorded. The results are read when the untreated control culture has colonized virtually all the dish. The diameter of the fungal cultures is then measured and the concentration of active material causing 50% inhibition of the growth of the fungus (called the IC50) is calculated.

Coniophora puteana = assay: as above; type: cell-based; details: agar culture medium, 20° C., read-out: IC50 (50% inhibition of the growth of the fungus)
Method: as §2, §3, §4, §5, §6

Gloeophyllum trabeum = assay: as above; type: cell-based; details: agar culture medium, 20° C., read-out: IC50 (50% inhibition of the growth of the fungus)
Method: as §2, §3, §4, §5, §6

[3] = system: Rhynchosporium oryzae (leaf scald); assay: Rice seed treatment field trial, attack type 5 (leaf scald = leaf tip blight); type: in vivo; details: vs insecticide-treated control plots, after 2 months
[4] = system: Grain discoloration (Pseudomonas spp., Erwinia herbicola, Helminthosporium oryzae and/or Alternaria spp.); assay: Rice seed treatment field trial, attack type 7 (grain discoloration); type: in vivo; details: vs insecticide-treated control plots
[5] = system: Puccinia recondita forma speciae tritici; assay: Wheat seed treatment against brown rust; type: in vivo; details: wheat (Theseus), infected foliar area, control 61
Method: EXAMPLE 8 This example illustrates application against brown rust of wheat (Puccinia recondita forma speciae tritici).
Wheat seeds (variety Theseus) were treated in the proportion of 10, 25, 50 and 100 g of active material per 100 kg of seeds.
These seeds are sown in 7×7 cm pots filled with a peat/pozzolana mixture in the proportion of 40 to 50 seeds per pot.
These pots are maintained at 10° C. under artificial light for 3 weeks, so that they arrive at the growth stage known as the 1-2-leaf stage.
Infection is then carried out by spraying an aqueous suspension containing 100000 spores of Puccinia recondita per ml.
The pots are then placed at 20° C. and 100% relative humidity for 24 hours and then under glass, on sand kept moist by regular sprinkling, at 20° C. and 80% relative humidity for 10 days.
The infected foliar area of the 1st leaf is then quantified visually.
The results shown in the table below (expressed as percentage) are obtained. The control seedlings correspond to pots in which untreated wheat seeds have been sown, which seeds have been infected by the disease.

Sphacelotheca reiliana = assay: Maize seed treatment against head smut; type: in vivo; details: maize (Adonis), 250 g/100 kg seeds, 3 months after sowing
Method: This example illustrates application against head smut (Sphacelotheca reiliana).
Maize seeds (variety Adonis) were treated in the proportion of 250 g of active material per 100 kg of seeds.
These seeds are sown in 9×9 cm pots filled with a mixture of compost and coarse sand which has been pre-infected by incorporation of Sphacelotheca reiliana spores according to 2 infectious doses: […] of substrate. Each pot contains 5 maize seeds.
These pots are then placed under glass on sand kept moist by regular sprinkling, at a temperature of 20° C. and a relative humidity of 60%.
Three months after sowing, the seedlings carrying the disease (presence or absence of smut in the maize inflorescences) are counted and the results shown in the table below (expressed as percentage) are obtained. The control seedlings correspond to pots filled with a substrate infected with the disease in which untreated maize seeds have been sown.

[6] = system: Rhizoctonia solani (sheath blight); assay: Rice seed treatment field trial, attack type 1 (sheath blight); type: in vivo, also called Pellicularia sasakii; details: vs insecticide-treated control plots, after 2 months
[7] = system: Helminthosporium oryzae (brown spot); assay: Rice seed treatment field trial, attack type 2 (brown spot); type: in vivo, also called Cochliobolus miyabeanus; details: vs insecticide-treated control plots, after 2 months
Pyrenophora graminea = assay: Barley seed treatment against leaf stripe; type: in vivo; details: barley (Agneta), naturally infected, 100 g/100 kg seeds
Method: This example illustrates application against leaf stripe (Pyrenophora graminea).
Barley seeds (variety Agneta), naturally infected with Pyrenophora graminea, were treated in the proportion of 100 g of active material per 100 kg of seeds.
as §1
These pots are maintained at 5° C. and in darkness for 3 weeks and are then placed at 10° C. under artificial light for 1 week. They are finally placed under glass, on sand kept moist by regular sprinkling, at 20° C. and 60% relative humidity for 3 weeks.
The seedlings carrying the disease (seedlings carrying off-white streaks along the leaves) are then counted and the following results (expressed as percentage) are obtained. The control seedlings correspond to pots in which barley seeds, naturally infected with the disease, have been sown, which seeds have not been treated. Two successive tests were carried out.

[8] = system: Pyricularia oryzae (leaf blast); type: in vivo, also called Magnaporthe grisae; details: vs insecticide-treated control plots, after 2 months
Rhizoctonia solani = assay: Cotton seed treatment against damping off; type: in vivo; details: cotton (DP 50), 17 days; for Total damping off (in %): pre-+post-emergence, control 80; for Pre-emergence damping off (in %): control 70
Method: This example illustrates application against damping off (Rhizoctonia solani).
Cotton seeds (variety DP 50) were treated in the proportion of 125, 250 and 500 g of active material per 100 kg of seeds.
These seeds are sown in 7×7 cm pots filled with a peat/pozzolana mixture which has been pre-infected by incorporation of 1 part of an aqueous suspension containing milled Rhizoctonia solani mycelium in 1600 parts of substrate. Each pot contains 5 cotton seeds.
These pots are then placed under glass at a temperature of 25° C. and at a relative humidity of 80% for 17 days.
The results with respect to early damping off (pre-emergence) and with respect to all the damping off attacks (pre-+post-emergence) are shown in the table below (expressed as percentage). The control seedlings correspond to pots filled with a substrate infected with the disease in which untreated cotton seeds have been sown.

[9] = Ex. 1: 40 g/100 kg rice seed, 150 kg/ha
[10] = Ex. 2: 40 g/100 kg rice seed, 200 kg/ha
[11] = Ex. 3: 40 g/100 kg rice seed, 150 kg/ha, pregerminated
[12] = Ex. 4: 40 g/100 kg rice seed, 200 kg/ha, pregerminated

For `N#Cc1nn(-c2c(Cl)cc(C(F)(F)F)cc2Cl)c(N)c1[S+]([O-])C(F)(F)F` (stereo not shown) [Compound A, 5-amino-3-cyano-1-(2,6-dichloro-4-trifluoromethyl)phenyl-4-trifluoromethylsulfinylpyrazole], the “Number of diseased seedlings (in %)” value (Microdochium nivale; 5 g/100 kg seeds) was 89%, the “Number of diseased seedlings (in %)” value (Microdochium nivale; 10 g/100 kg seeds) was 82% and the “Number of diseased seedlings (in %)” value (Microdochium nivale; 25 g/100 kg seeds) was 89%. For the same molecule, the “Number of diseased seedlings (in %)” value (Microdochium nivale; 50 g/100 kg seeds) was 85%, the “Number of diseased seedlings (in %)” value (Microdochium nivale; 100 g/100 kg seeds) was 80% and the “Number of diseased seedlings (in %)” value (Fusarium moniliforme; 125 g/100 kg seeds) was 72%. For the same molecule, the “Number of diseased seedlings (in %)” value (Fusarium moniliforme; 250 g/100 kg seeds) was 76%, the “number of plants attacked just below the ear; result observed, expressed as percentage” value [1, 9] was 35 percentage and the “number of plants attacked just below the ear; result observed, expressed as percentage” value [1, 10] was 39 percentage. For the same molecule, the “number of plants attacked just below the ear; result observed, expressed as percentage” value [1, 11] was 35 percentage, the “number of plants attacked just below the ear; result observed, expressed as percentage” value [1, 12] was 39 percentage and the “number of sheaths attacked; result observed, expressed as percentage” value (“number of sheaths attacked … as percentage” below) [2, 9] was 80 percentage. For the same molecule, the “number of sheaths attacked … as percentage” value [2, 10] was 88 percentage, the “number of sheaths attacked … as percentage” value [2, 11] was 80 percentage and the “number of sheaths attacked … as percentage” value [2, 12] was 88 percentage. For the same molecule, the IC50 (Serpula lacrymans) was 14.5 µg/mL (≈ 33.2 µM), the IC50 (Coniophora puteana) was 16.3 µg/mL (≈ 37.3 µM) and the IC50 (Gloeophyllum trabeum) was 0.3 µg/mL (≈ 0.686 µM). For the same molecule, the “number of leaves having a withered part; result observed, expressed as percentage” value [3, 9] was 57 percentage, the “number of leaves having a withered part; result observed, expressed as percentage” value [3, 10] was 63 percentage and the “number of leaves having a withered part; result observed, expressed as percentage” value [3, 11] was 57 percentage. The “number of leaves having a withered part; result observed, expressed as percentage” value [3, 12] was 63 percentage, the “number of grains in which the normal yellow color is replaced by brown blemishes; result observed, expressed as percentage” value (shortened to “number of grains … as percentage”) [4, 9] was 63 percentage and the “number of grains … as percentage” value [4, 10] was 70 percentage. For the same molecule, the “number of grains … as percentage” value [4, 11] was 63 percentage, the “number of grains … as percentage” value [4, 12] was 70 percentage and the “Infection of the 1st leaf (in %)” value ([5]; 10 g/100 kg seeds) was 47%. For the same molecule, the “Infection of the 1st leaf (in %)” value ([5]; 25 g/100 kg seeds) was 37%, the “Infection of the 1st leaf (in %)” value ([5]; 50 g/100 kg seeds) was 17% and the “Infection of the 1st leaf (in %)” value ([5]; 100 g/100 kg seeds) was 2%. The “Number of diseased seedlings (in %)” value (Sphacelotheca reiliana; infectious dose 0.125 g/kg, control 67) was 46%, the “Number of diseased seedlings (in %)” value (Sphacelotheca reiliana; infectious dose 0.25 g/kg, control 71) was 40% and the “number of sheaths attacked … as percentage” value [6, 9] was 55 percentage. The “number of sheaths attacked … as percentage” value [6, 10] was 60 percentage, the “number of sheaths attacked … as percentage” value [6, 11] was 55 percentage and the “number of sheaths attacked … as percentage” value [6, 12] was 60 percentage. The “area of leaves attacked; result observed, expressed as percentage” value (shortened to “area of leaves attacked … as percentage”) [7, 9] was 79 percentage, the “area of leaves attacked … as percentage” value [7, 10] was 87 percentage and the “area of leaves attacked … as percentage” value [7, 11] was 79 percentage. The “area of leaves attacked … as percentage” value [7, 12] was 87 percentage, the “Number of diseased seedlings (in %)” value (Pyrenophora graminea; Test No. 1, control 50) was 34% and the “Number of diseased seedlings (in %)” value (Pyrenophora graminea; Test No. 2, control 44) was 29%. The “number of sheaths attacked … as percentage” value [8, 9] was 82 percentage, the “number of sheaths attacked … as percentage” value [8, 10] was 90 percentage and the “number of sheaths attacked … as percentage” value [8, 11] was 82 percentage. The “number of sheaths attacked … as percentage” value [8, 12] was 90 percentage, the “Total damping off (in %)” value (Rhizoctonia solani; 125 g/100 kg seeds) was 50% and the “Pre-emergence damping off (in %)” value (Rhizoctonia solani; 125 g/100 kg seeds) was 45%. For the same molecule, the “Total damping off (in %)” value (Rhizoctonia solani; 250 g/100 kg seeds) was 60%, the “Pre-emergence damping off (in %)” value (Rhizoctonia solani; 250 g/100 kg seeds) was 45% and the “Total damping off (in %)” value (Rhizoctonia solani; 500 g/100 kg seeds) was 50%. The “Pre-emergence damping off (in %)” value (Rhizoctonia solani; 500 g/100 kg seeds) was 10%.
